Reference: patent publication US8822377B2, “Herbicidal compositions comprising topramezone and pinoxaden” (BASF SE, priority 2011, dated 2014)

Key:
[1] = tested on: TRZAW (winter wheat) Cubus; experiment: Greenhouse post-emergence crop damage rating, winter wheat; conditions: topramezone 12 g a.i./ha, 0=no damage, 100=complete destruction
Procedure: (§1) The culture containers used were plastic pots containing loamy sand with approximately 3.0% of humus as substrate. The seeds of the test plants were sown separately for each species.
(§2) In all use examples, plants were grown in a greenhouse environment.
(§3) To this end, the test plants were either sown directly and grown in the same containers, or they were first grown separately as seedlings and transplanted into the test containers a few days prior to treatment.
(§4) Depending on the species, the plants were kept at 10-25° C. and 20-35° C., respectively. The test period extended over 1 to 4 weeks. During this time, the plants were tended and their response to the individual treatments was evaluated.
(§5) Topramezone was used as a commercial suspension concentrate (Clio® of BASF SE) having an active ingredient concentration of 336 g/l.
(§6) The evaluation for the damage caused by the chemical compositions was carried out using a scale from 0 to 100%, compared to the untreated control plants. Here, 0 means no damage and 100 means complete destruction of the plants.

[2] = tested on: TRZAS Taifun; experiment: Greenhouse post-emergence crop damage rating, wheat TRZAS; conditions: topramezone 12 g a.i./ha
Procedure: as §1, §2, §3, §4, §5, §6

[3] = tested on: HORVW (winter barley) Highlight; experiment: Greenhouse post-emergence crop damage rating, winter barley; conditions: topramezone 12 g a.i./ha
Procedure: as §1, §2, §3, §4, §5, §6

[4] = tested on: GALAP (cleaver); experiment: Greenhouse post-emergence herbicidal activity against cleaver; format: in vivo; conditions: Galium aparine, 648 h, topramezone 12 g a.i./ha, read-out: Herbicidal activity (%) at 27 DAT Observed GALAP GS22
Text: (§7) The test period extended over 1 to 4 weeks.
(§8) 22 ff. E=X+Y−(X·Y/100) where • X=effect in percent using herbicide A at an application rate a; • Y=effect in percent using pinoxaden (herbicide B) at application rate b or a combination of pinoxaden and safener C at application rates b and c; • E=expected effect (in %) of A+B at application rates a+b or of A+B+C at application rates a+b+c.
(§9) The value E corresponds to the effect (plant damage or injury) which is to be expected if the activity of the individual compounds is just additive. If the observed effect is higher than the value E calculated according to Colby, a synergistic effect is present.

[5] = tested on: VERPE (field speedwell); experiment: Greenhouse post-emergence herbicidal activity against field speedwell; format: in vivo; conditions: Veronica persica, 648 h, topramezone 12 g a.i./ha, read-out: Herbicidal activity (%) at 27 DAT Observed VERPE GS22
Text: as §7, §8, §9

SMILES: Cc1c(C(=O)c2cnn(C)c2O)ccc(S(C)(=O)=O)c1C1=NOCC1 [Topramezone, [3-(4,5-dihydro-1,2-oxazol-3-yl)-4-mesyl-o-tolyl](5-hydroxy-1-methylpyrazol-4-yl)methanone]
- Herbicidal activity (%) at 27 DAT TRZAW Cubus GS12 [1]: 20%
- Herbicidal activity (%) at 27 DAT TRZAS Taifun GS11 [2]: 30%
- Herbicidal activity (%) at 27 DAT HORVW Highlight GS11 [3]: 20%
- inhibition at 12 g/ha [4]: 90%
- inhibition at 12 g/ha [5]: 75%
